Source: ChEMBL document CHEMBL1139625, “Synthesis and binding affinity of novel 3-aminoethyl-1-tetralones, potential atypical antipsychotics” (Bioorg Med Chem Lett, 2005)

Assays:
[1] = Inhibitory constant towards 5-hydroxytryptamine 2C receptor (5-HT2C)
[2] = Inhibitory constant towards dopamine D2 receptor was determined
[3] = Inhibitory constant towards 5-hydroxytryptamine 2A receptor (5-HT2A)
[4] = Ratio of inhibitory constant for 5-hydroxytryptamine 2A receptor to that of dopamine receptor D2

| SMILES | Log Ki [1] | Log Ki [2] | Log Ki [3] | Ratio [4] |
| --- | --- | --- | --- | --- |
| O=C1CC(CCN2CCN(c3ccccn3)CC2)Cc2ccccc21 (centres undefined) | < -5 | < -5 | -6.54 | – |
| COc1ccc2c(c1)C(=O)CC(CCN1CCC3(CC1)NCNC3=O)C2 (centres undefined) | < -5 | < -5 | < -5 | – |
| COc1ccccc1N1CCN(CCC2CC(=O)c3ccccc3C2)CC1 (centres undefined) | -6.35 | -6.97 | -6.59 | 0.95 |
| COc1ccc2c(c1)C(=O)CC(CCN1CCN(c3ccccc3OC)CC1)C2 (centres undefined) | -5.72 | -6.55 | -6.65 | 1.01 |
| COc1ccc2c(c1)C(=O)CC(CCN1CCC(c3noc4cc(F)ccc34)CC1)C2 (centres undefined) | -6.89 | -7.04 | -8.23 | 1.17 |
| O=C1CC(CCN2CCC(c3noc4cc(F)ccc34)CC2)Cc2ccccc21 (centres undefined) | -7.06 | -5.98 | -8.29 | 1.38 |
| O=C1NC(=O)C2(CCN(CCC3CC(=O)c4ccccc4C3)CC2)N1 (centres undefined) | -7.05 | < -5 | -6.15 | – |
| COc1ccc2c(c1)CC(CN1CCC(c3noc4cc(F)ccc34)CC1)CC2=O (centres undefined) | -5.79 | – | -7.34 | 1.16 |
| CN1CCN(C2=Nc3cc(Cl)ccc3Nc3ccccc32)CC1 [CLOZAPINE] | – | -6.65 | – | – |
| O=C(CCCN1CCC(O)(c2ccc(Cl)cc2)CC1)c1ccc(F)cc1 [HALOPERIDOL] | – | -9.22 | – | – |
| O=C1CC(CN2CCC(c3noc4cc(F)ccc34)CC2)Cc2ccccc21 (centres undefined) | -6.89 | – | -8.57 | 1.18 |
| COc1cc2c(cc1OC)C(=O)CC(CN1CCC(c3noc4cc(F)ccc34)CC1)C2 (centres undefined) | – | – | -8.02 | 1.18 |
| COc1ccc2c(c1)C(=O)CC(CCN1CCN(c3ccccn3)CC1)C2 (centres undefined) | -5.81 | < -5 | -6.33 | – |
| O=C1CC(CCN2CCC3(CC2)NCNC3=O)Cc2ccccc21 (centres undefined) | < -5 | < -5 | < -5 | – |
| COc1ccc2c(c1)C(=O)CC(CCN1CCC3(CC1)NC(=O)NC3=O)C2 (centres undefined) | -6.9 | < -5 | -5.98 | – |
